Assays:
[1] = test system: intracellular L. donovani amastigotes; assay: Luminescent-based evaluation of intracellular anti-leishmanial activity in THP-1 macrophages; assay type: cell-based, Leishmania donovani; details: intracellular Leishmania donovani in THP1 macrophages, luminescence assay (Supplemental Table 2); read-out: Lum IC50
Protocol: Luminescent strains, L. donovani LV82 expressing firefly luciferase (a kind gift from Dr. Abhay Satoskar, Ohio State University) and L. mexicana (NR-51210, ATCC) expressing renilla luciferase were used to evaluate the effect of the compounds in intracellular and extracellular conditions. Wild-type L. donovani LV82 (ATCC) were used for Giemsa staining based experiments. All parasites were cultured at 25°C and 5% CO2 in M199 media (Corning) supplemented with 10% FBS, 1% penicillin/streptomycin, and hemin (0.01 mg/mL), and used in experiments up to passage 15.
THP-1 cells were seeded in a 96 well plate (25,000 cells/well) overnight then differentiated with 150 nM phorbol 12-myristate 13-acetate (PMA) over 72 hours (Supplemental Figure 1). […] Briefly, promastigotes of a known cell density were resuspended in RPMI media (with 10% FBS, 1% P/S and 0.05 mM β-mercaptoethanol) and incubated with adhered THP-1 cells over 18 hours. After infection, cells were washed three times with fresh media to remove extracellular promastigotes.
Infected macrophages were then treated with compounds solubilized in DMSO ranging from 0.1-10 μM in concentrations. After 72 hours of treatment, the viability of the amastigotes within macrophages was determined using Promega firefly luminescence assay (Cat E1500) or Pierce Renilla luciferase assay (Cat 16166) for L. donovani and L. mexicana strains, respectively. Briefly, media was removed, and cells were lysed with the assay lysis buffer. The luciferase substrate was then incubated with the lysed cells for 10 min at room temperature and luminescence of live Leishmania was measured in a white opaque 96 well plate using a Biotek plate reader.

THP-1 macrophages = assay: Effect of compounds on host cell viability (MTT); assay type: cell-based; details: read-out: 24h LC50; THP1 macrophages, 24-hour incubation, MTT assay (Supplemental Table 2)
Protocol: The cells were cultured at 37C, 5% CO2 in RPMI medium (ATCC) supplemented with 10% FBS, 1% Penicillin/Streptomycin and 0.05 mM of β-mercaptoethanol. Cells were used in experiments up to passage 10.
Effect of the compounds on THP-1 cell viability measured using thiazolyl blue tetrazolium bromide which measures cell metabolic activity (MTT). THP-1 cells were seeded in a 96 well plate (25,000 cells/well) overnight then differentiated with 150 nM phorbol 12-myristate 13-acetate (PMA) over 72 hours. Macrophages were then treated with compounds resuspended in RPMI media (1- 50 μM) for 24 hours. Media was replaced with thiazolyl blue tetrazolium bromide solubilized in RPMI media (0.5 mg/mL) and incubated at 37°C for 2 hours. The reduced formazan crystals were solubilized with isopropyl alcohol and the absorbance of the resulting solution was measured at 560 nm with a background subtraction at 670 nm. […] This process was repeated with a 72-hr incubation and extended concentration range (1 - 300 μM) for select compounds.

NCC(=O)Nc1ccc(-n2cc(C(F)(F)F)nc2-c2ccc(-c3ccc(C(F)(F)F)cc3)cc2)cc1 [Compound 79]
IC50 [1]: 7.1 µM
CC50 (THP-1 macrophages): 6.3 µM

NC(Cc1ccccc1)C(=O)Nc1ccc(-n2cc(C(F)(F)F)nc2-c2ccc(-c3ccc(C(F)(F)F)cc3)cc2)cc1 (stereo not drawn) [Compound 80]
IC50 [1]: 3 µM
CC50 (THP-1 macrophages): 8.2 µM

FC(F)(F)c1cn(-c2ccc(Br)cc2)c(-c2ccc(-c3ccccc3)cc2)n1 [Compound 81]
IC50 [1]: > 10 µM
CC50 (THP-1 macrophages): > 50 µM

CC(C)(C)OC(=O)NC1CCN(c2ccc(-n3cc(C(F)(F)F)nc3-c3ccc(-c4ccccc4)cc3)cc2)C1 (stereo not drawn) [Compound 82]
IC50 [1]: > 10 µM
CC50 (THP-1 macrophages): > 50 µM

NC1CCN(c2ccc(-n3ccnc3-c3ccc(-c4ccccc4)cc3)cc2)C1 (stereo not drawn) [Compound 83]
IC50 [1]: 1.8 µM
CC50 (THP-1 macrophages): 6.2 µM

FC(F)(F)c1cn(-c2ccc(N3CCC(NCc4ccccc4)C3)cc2)c(-c2ccc(-c3ccccc3)cc2)n1 (stereo not drawn) [Compound 84]
IC50 [1]: 6.5 µM
CC50 (THP-1 macrophages): > 50 µM

O=C(Nc1ccc(-n2cc(C(F)(F)F)nc2-c2ccc(-c3ccccc3)cc2)cc1)C1CCCN1Cc1ccccc1 (stereo not drawn) [Compound 85]
IC50 [1]: > 10 µM
CC50 (THP-1 macrophages): > 50 µM

FC(F)(F)c1cn(-c2ccc(NCc3ccccc3)cc2)c(-c2ccc(-c3ccccc3)cc2)n1 [Compound 87]
IC50 [1]: 6.7 µM
CC50 (THP-1 macrophages): > 50 µM

O=C(Nc1ccc(-n2cc(C(F)(F)F)nc2-c2ccc(-c3ccccc3)cc2)cc1)c1ccccc1 [Compound 88]
IC50 [1]: > 10 µM
CC50 (THP-1 macrophages): > 50 µM

FC(F)(F)c1ccc(-c2ccc(-c3cc(C(F)(F)F)nn3-c3ccc(N4CCC(NCc5ccccc5)CC4)cc3)cc2)cc1 [Compound 89]
IC50 [1]: 4 µM
CC50 (THP-1 macrophages): 8 µM

FC(F)(F)c1ccc(-c2ccc(-c3cc(C(F)(F)F)nn3-c3ccc(NC4CCN(Cc5ccc(Cl)c(Cl)c5)CC4)cc3)cc2)cc1 [Compound 90]
IC50 [1]: > 10 µM
CC50 (THP-1 macrophages): > 50 µM

C#CCCCC(=O)NC1CCN(c2ccc(-n3nc(C(F)(F)F)cc3-c3ccc(-c4ccc(C(F)(F)F)cc4)cc3)cc2)CC1 [Compound 92]
IC50 [1]: > 10 µM
CC50 (THP-1 macrophages): 14.7 µM

FC(F)(F)C#Cc1ccc(-c2cc(C(F)(F)F)nn2-c2ccc(N3CCNCC3)cc2)cc1 [Compound 93]
IC50 [1]: > 10 µM
CC50 (THP-1 macrophages): 40 µM

CC(C)C#Cc1ccc(-c2cc(C(F)(F)F)nn2-c2ccc([N+](=O)[O-])cc2)cc1 [Compound 94]
IC50 [1]: > 10 µM
CC50 (THP-1 macrophages): 29 µM

CC(C)C#Cc1ccc(-c2cc(C(F)(F)F)nn2-c2ccc(N)cc2)cc1 [Compound 95]
IC50 [1]: > 10 µM
CC50 (THP-1 macrophages): > 50 µM

CC(C)C#Cc1ccc(-c2cc(C(F)(F)F)nn2-c2ccc(Br)cc2)cc1 [Compound 96]
IC50 [1]: > 10 µM
CC50 (THP-1 macrophages): 37.5 µM

CC(C)C#Cc1ccc(-c2cc(C(F)(F)F)nn2-c2ccc(N3CCC(NC(=O)OC(C)(C)C)C3)cc2)cc1 (stereo not drawn) [Compound 97]
IC50 [1]: > 10 µM
CC50 (THP-1 macrophages): > 50 µM

CC(C)C#Cc1ccc(-c2cc(C(F)(F)F)nn2-c2ccc(N3CCC(N)C3)cc2)cc1 (stereo not drawn) [Compound 98]
IC50 [1]: > 10 µM
CC50 (THP-1 macrophages): 19.5 µM

CC(C)C#Cc1ccc(-c2cc(C(F)(F)F)nn2-c2ccc(N3CCC(NCc4ccccc4)C3)cc2)cc1 (stereo not drawn) [Compound 99]
IC50 [1]: > 10 µM
CC50 (THP-1 macrophages): 29.2 µM

CC(C)C#Cc1ccc(-c2cc(C(F)(F)F)nn2-c2ccc(N3CCC(NCc4cccc(F)c4)C3)cc2)cc1 (stereo not drawn) [Compound 100]
IC50 [1]: > 10 µM
CC50 (THP-1 macrophages): > 50 µM

O=[N+]([O-])c1ccc(-n2nc(C(F)(F)F)cc2-c2ccc(-c3ccc(S(F)(F)(F)(F)F)cc3)cc2)cc1 [Compound 103]
IC50 [1]: > 10 µM
CC50 (THP-1 macrophages): > 50 µM

Nc1ccc(-n2nc(C(F)(F)F)cc2-c2ccc(-c3ccc(S(F)(F)(F)(F)F)cc3)cc2)cc1 [Compound 104]
IC50 [1]: > 10 µM
CC50 (THP-1 macrophages): > 50 µM

FC(F)(F)c1cc(-c2ccc(-c3ccc(S(F)(F)(F)(F)F)cc3)cc2)n(-c2ccc(Br)cc2)n1 [Compound 105]
IC50 [1]: > 10 µM
CC50 (THP-1 macrophages): > 50 µM

NC1CCN(c2ccc(-n3nc(C(F)(F)F)cc3-c3ccc(-c4ccc(S(F)(F)(F)(F)F)cc4)cc3)cc2)C1 (stereo not drawn) [Compound 106]
IC50 [1]: 8.1 µM
CC50 (THP-1 macrophages): 6 µM
